From ChEMBL document CHEMBL3244327, “Benzomorphans. Structure of a position isomer” (J Med Chem, 1978) come the findings set out here.

Molecules are shown by their SMILES. The source made the active and inactive calls. The rule behind the calls is not given here.

One data set relates to Mus musculus. Nature of the data set: Analgesic activity in sc dosed mouse assessed as inhibition of acetylcholine bromide-induced writhing after 2 mins. The format is functional.
Data set [1] concerns Rattus norvegicus. In words: Narcotic antagonist activity in sc dosed rat assessed as dose required for 50% antagonist activity co-treated with meperidine. The data set is classed as functional.
The subject of data set [2] is Rattus norvegicus. Nature of the data set: Narcotic antagonist activity in rat assessed as dose required for 50% antagonist activity at 80 mg/kg, sc co-treated with meperidine. The data set is classed as functional, organism-based. Further details: dose 80 mg/kg.
Data set [3] concerns Rattus norvegicus. In words: Toxicity in rat at 80 mg/kg, sc. Further details: dose 80 mg/kg, route subcutaneous. The format is organism-based. The following applies: in vivo.
The test system of data set [4] is Rattus norvegicus. In words: Narcotic antagonist activity in rat assessed as dose required for 50% antagonist activity at 10 mg/kg, sc co-treated with meperidine. The format is functional, organism-based. Further details: dose 10 mg/kg.

By ED50 is commonly meant the midpoint of the dose-response relation. `CN1CC[C@]23c4c5ccc(O)c4O[C@H]2[C@@H](O)C=C[C@H]3[C@H]1C5` [MORPHINE]: the 50% effective dose (ED50) in the data set with Mus musculus worked out at 0.47 mg/kg. Also, in the data set on Rattus norvegicus [1], the result was inactive.
Regarding `CC[C@H]1C2Cc3ccc(O)cc3[C@@]1(C)CCN2C`, in the data set on Mus musculus, the ED50 was determined as 1.1 mg/kg. Besides, the result in the data set with Rattus norvegicus [2] was inactive.
On to `C=CCN1CC(C)[C@]2(CC)CC1Cc1ccc(O)cc12` (some centres undefined), for which, in the data set with Mus musculus, the ED50 is 10 mg/kg. Besides, the AD50 in the data set with Rattus norvegicus [1] came out at 0.037 mg/kg.
Take `CC1CN(Cc2ccccc2)C2Cc3ccc(O)cc3[C@@]1(C)C2` (some centres undefined): the ED50 in the data set on Mus musculus is 8.5 mg/kg. Further, the Activity result with Rattus norvegicus [3] was “Toxic”. For the same compound, the result in the data set on Rattus norvegicus [4] was inactive.
For the compound `CC1CN(C)C2Cc3ccc(O)cc3[C@@]1(C)C2` (some centres undefined), the ED50 in the data set on Mus musculus came out at 2.9 mg/kg.
For `CC[C@@]12CC(Cc3ccc(O)cc31)N(CC=C(C)C)CC2C` (some centres undefined), in the data set on Rattus norvegicus [1], the AD50 was more than 40 mg/kg.
On to `C=CCN1CC[C@]2(CC)c3cc(O)ccc3CC1[C@@H]2C`, for which, in the data set on Mus musculus, the ED50 came to 0.23 mg/kg. In addition, in the data set with Rattus norvegicus [1], the AD50 turned out to be 0.064 mg/kg.
For `CCC1CN(C)C2Cc3ccc(O)cc3[C@@]1(C)C2` (some centres undefined) the same measures were 20 mg/kg and 9 mg/kg.
Consider `C[C@H]1C2Cc3ccc(O)cc3[C@@]1(C)CCN2Cc1ccccc1`, for which the median effective dose (ED50) in the data set on Mus musculus came out at 23 mg/kg. Also, in the data set on Rattus norvegicus [1], the AD50 amounted to 1.3 mg/kg.
For `CC[C@@]12CCN(CC=C(C)C)C(Cc3ccc(O)cc31)[C@@H]2C` the same measures were 2.1 mg/kg and 10.9 mg/kg.
As to `C[C@H]1C2Cc3ccc(O)cc3[C@@]1(C)CCN2C`, in the data set on Mus musculus, the ED50 turned out to be 0.54 mg/kg.
Consider `CC(C)=CCN1CC[C@@]2(C)c3cc(O)ccc3C[C@@H]1[C@@H]2C` (relative stereo), for which the 50% effective dose (ED50) in the data set with Mus musculus amounted to 2.2 mg/kg. The AD50 with Rattus norvegicus [1] is 3.9 mg/kg.
In the same order, the values of `CC(C)=CCN1C[C@@H](C)[C@]2(C)C[C@@H]1Cc1ccc(O)cc12` are 29 mg/kg and 2.8 mg/kg.
